Values quoted from earlier work in patent publication US8815261B2 (priority 2009, dated 2014).
Like-named read-outs stand apart in the source and are kept apart here.

SMILES | logP calculated value of organic acid (PubChem value, as in Example 2 (Table 4)) | logP calculated value of organic acid (PubChem value (revised on February, 2009))
O=S(=O)(O)c1ccccc1 [benzenesulfonic acid] | 0 | –
CC(=O)CCC(=O)O [levulinic acid] | – | −0.5
